SMILES strings stand for the structures.

The data set in a line: Human HepG2 cell viability assay in 384 well format. Further details: dose 125 nL, time 70.5 hour; concentration not given beside the values. In kind it is toxicity, cell-based. The following applies: HepG2 cells, read-out: Inhibition.
For the molecule `Cc1cnn(CC2CCCN2Cc2noc(-c3ccccc3)n2)c1` (centres undefined), the cytotoxicity at 70.5 h is -9.63%.

Take `Cc1cnn(CC2CN(CCc3ccccn3)CCO2)c1` (centres undefined): the cytotoxicity at 70.5 h is -7.7%.

`CCc1nc(CN2CCCC2c2c(C)nn(C)c2OC)no1` (centres undefined): the cytotoxicity at 70.5 h is -3.81%.

Consider `NC(=O)C1CCCN(c2ccc(CNC(=O)c3cc[nH]n3)cc2)C1` (centres undefined), for which the cytotoxicity at 70.5 h amounted to 5.04%.

In the case of `Cc1cnn(CC2CN(CC(=O)Nc3ccncc3)CCO2)c1` (centres undefined), the cytotoxicity at 70.5 h is -5.95%.

In the case of `CC(=O)NCCNC(=O)CN1CCOC(Cn2cc(C)cn2)C1` (centres undefined), the cytotoxicity at 70.5 h was -5.91%.

Turning to `O=C(c1ccc2c(c1)OCCO2)N1CCCC(n2ccnc2)C1` (centres undefined), the cytotoxicity at 70.5 h was -4.86%.

Consider `Cc1ccc(-c2nc(CN3CCCCC3Cn3cncn3)no2)cc1` (centres undefined), for which the cytotoxicity at 70.5 h is -7.36%.

With `Cc1nn(C)c(C)c1C1CCCN1C(=O)c1ccc(N(C)C)nn1` (centres undefined), the cytotoxicity at 70.5 h is -6.36%.

`Cc1nc(C(=O)N2CCCC2c2c(C)nn(C)c2Cl)ccc1C#N` (centres undefined): the cytotoxicity at 70.5 h was -4.22%.

For the molecule `Cc1nn(C)c(C)c1C1CCCN1C(=O)c1cnccn1` (centres undefined), the cytotoxicity at 70.5 h is -2.94%.

Consider `Cc1cc(C)n(CC2CCCN2Cc2nc(N)c3ccccc3n2)n1` (centres undefined), for which the cytotoxicity at 70.5 h is -3.06%.

In the case of `Cc1cnn(CC2CCCN2Cc2noc(C3CC3)n2)c1` (centres undefined), the cytotoxicity at 70.5 h was 0.359%.

As to `COc1c(C2CCCN2Cc2nc(C)c(C)o2)c(C)nn1C` (centres undefined), the cytotoxicity at 70.5 h was -7.8%.

For `Cc1cnn(CCNCc2ccccc2OCc2ccncc2)c1`, the cytotoxicity at 70.5 h came out at 3.09%.

Consider `Cc1nc(C)n(CC2CCCN2Cc2nc3ccccc3c(=O)[nH]2)n1` (centres undefined), for which the cytotoxicity at 70.5 h was -1.61%.

In the case of `Cc1nc(C(=O)N2CCCC2c2c(C)nn(C)c2C)cs1` (centres undefined), the cytotoxicity at 70.5 h is -3.9%.

Take `Cc1nn(C)c(N(C)C)c1CNCc1ccccc1Cn1ccnc1`: the cytotoxicity at 70.5 h is -1.82%.

For the molecule `Cc1cnn(CCNCc2ccccc2OCc2ccccn2)c1`, the cytotoxicity at 70.5 h is -0.163%.

`Cc1nc(C)n(CC2CCCN2Cc2nc3ccccc3s2)n1` (centres undefined): the cytotoxicity at 70.5 h is -5.56%.

As to `Cc1ccccc1OCCN1CCn2c(C)nnc2C1`, the cytotoxicity at 70.5 h stood at 25.1%.

Turning to `Cc1cc(C)cc(OCCN2CCn3c(C)nnc3C2)c1`, the cytotoxicity at 70.5 h was -4.98%.

As to `CCn1ncc2c1CCCC2NCc1cccc2c1OCO2` (centres undefined), the cytotoxicity at 70.5 h stood at 15.8%.

Turning to `Cc1ncccc1CNCC1CCN(CC(C)O)CC1` (centres undefined), the cytotoxicity at 70.5 h is -4.39%.

In the case of `CC(C)Oc1ncccc1CNC(=O)Nc1ccccn1`, the cytotoxicity at 70.5 h stood at 0.773%.

For the molecule `CC(NCc1ccccc1Cl)c1ccc(OCC(=O)NC2CC2)cc1` (centres undefined), the cytotoxicity at 70.5 h was found to be 0.704%.

For `Cc1cccc(CNC(C)c2ccc(OCC(=O)NC3CC3)cc2)c1` (centres undefined), the cytotoxicity at 70.5 h was -0.442%.

Consider `CCN(Cc1nc2c(cnn2C)c(=O)[nH]1)c1ccccc1`, for which the cytotoxicity at 70.5 h came to 3.68%.

With `Cn1ncc2c1CCCC2NCc1cccc2c1OCCCO2` (centres undefined), the cytotoxicity at 70.5 h is 0.963%.

Consider `Cc1cc(C)n(CC2CN(c3ncnc4[nH]ccc34)CCO2)n1` (centres undefined), for which the cytotoxicity at 70.5 h is 1.04%.

`CC(Cn1cccn1)NCc1ccc(OCc2ccncc2)cc1` (centres undefined): the cytotoxicity at 70.5 h stood at 3.19%.

With `Cc1cnn(CC(C)NCc2ccc(OCC(N)=O)cc2)c1` (centres undefined), the cytotoxicity at 70.5 h was 11.6%.

Turning to `Cc1ccc(CNCC2CCN(CC(O)c3ccccc3)CC2)o1` (centres undefined), the cytotoxicity at 70.5 h is -1.65%.

As for `N#Cc1ccnc(N2CCN(C(=O)Cc3ccc4c(c3)CCO4)CC2)c1`, the cytotoxicity at 70.5 h is -7.76%.

Consider `Cc1nn(C)c(N2CCOCC2)c1CNCc1nccs1`, for which the cytotoxicity at 70.5 h is -6.17%.

On to `CC(C)Oc1ncccc1CNC(=O)N1CCC(C(N)=O)C1` (centres undefined), for which the cytotoxicity at 70.5 h was -12.5%.

In the case of `O=C(c1ccc(-n2ccnc2)nc1)N1CCCC(n2cccn2)C1` (centres undefined), the cytotoxicity at 70.5 h was determined as 1.69%.

As to `Cc1nnc2n1CCN(Cc1ncc(-c3ccc(Cl)cc3)o1)C2`, the cytotoxicity at 70.5 h is -11%.

Take `c1cnn(C2CN(Cc3nc(-c4ccsc4)no3)C2)c1`: the cytotoxicity at 70.5 h was -11.9%.

For the molecule `COc1ccc(-c2cnc(CN3CCn4c(C)nnc4C3)o2)cc1`, the cytotoxicity at 70.5 h was 22.7%.

As for `Cc1cc(C)c(CNC(=O)NCCOc2ccc3c(c2)CCC3)c(=O)[nH]1`, the cytotoxicity at 70.5 h was -9.44%.

Take `CC(C(=O)NCc1ccnc(N2CCN(C)CC2)c1)n1cccn1` (centres undefined): the cytotoxicity at 70.5 h is -5.91%.

Consider `Cc1cc(C2CCCN2C(=O)c2cc3c(s2)CCC3)on1` (centres undefined), for which the cytotoxicity at 70.5 h is -16.3%.

`c1cnc(-c2nc(CNCCn3cccn3)cs2)nc1`: the cytotoxicity at 70.5 h turned out to be 8.63%.

As to `c1ccc(-c2noc(CN3CCOC(Cn4cccn4)C3)n2)nc1` (centres undefined), the cytotoxicity at 70.5 h is -8.08%.

Regarding `CCc1nc(CN2CCCC(NCc3nc4cccnc4[nH]3)C2)no1` (centres undefined), the cytotoxicity at 70.5 h was found to be 18.9%.

In the case of `CNS(=O)(=O)Cc1ccc(CNC(=O)Nc2cccnc2)cc1`, the cytotoxicity at 70.5 h turned out to be 13.3%.

Turning to `O=C(Nc1ccccn1)C1=NN(c2ccccc2)C(=O)CN1`, the cytotoxicity at 70.5 h is 45.9%.

Consider `CC(=O)N1CCN(C(=O)CCCc2nc(C(C)C)no2)CC1`, for which the cytotoxicity at 70.5 h came to 11.7%.

Take `CC(C(=O)NCCOc1cccc(Cl)c1)n1cncn1` (centres undefined): the cytotoxicity at 70.5 h is -9.41%.

As for `CC(Cn1ccnc1)NC(=O)C1(c2ccc3c(c2)OCCO3)CCCC1` (centres undefined), the cytotoxicity at 70.5 h was 14.5%.

For the molecule `CC(Cn1cccn1)NC(=O)NCCc1cnn(C)c1` (centres undefined), the cytotoxicity at 70.5 h is -16.3%.

In the case of `CNS(=O)(=O)Cc1ccc(CNC(=O)Nc2cn[nH]c2)cc1`, the cytotoxicity at 70.5 h was -11.3%.

For the molecule `Cc1ccc(S(=O)(=O)Nc2ccc(=O)n(C)c2)cc1`, the cytotoxicity at 70.5 h is -13.1%.

`COc1cccc(C2CCCN2Cc2nc3c(cnn3C)c(=O)[nH]2)c1` (centres undefined): the cytotoxicity at 70.5 h was -1.55%.

For `Cc1ccc(C2CCCN2Cc2nc3c(cnn3C)c(=O)[nH]2)cc1C` (centres undefined), the cytotoxicity at 70.5 h is -15.6%.

With `CC(Cn1ccnc1)NC(=O)C1(c2ccc(F)cc2)CC1` (centres undefined), the cytotoxicity at 70.5 h was -8.11%.

Regarding `COc1ccc2c(c1)CN(Cc1nc3c(cnn3C)c(=O)[nH]1)CC2`, the cytotoxicity at 70.5 h was 45.5%.

As to `O=C(CN1CCC(N2CCNC2=O)CC1)NCC(F)(F)F`, the cytotoxicity at 70.5 h was -11.3%.

Consider `COC(=O)c1ccc(N2CCN(C(=O)c3cc(C)on3)C(C)C2)cc1` (centres undefined), for which the cytotoxicity at 70.5 h is -15.3%.

As to `COC(=O)c1ccc(N2CCN(C(=O)c3cnn(C)c3)C(C)C2)cc1` (centres undefined), the cytotoxicity at 70.5 h amounted to 16.7%.

For the molecule `CC(C)c1ccc(C(C)NC(=O)N2CCC(n3cncn3)CC2)cc1` (centres undefined), the cytotoxicity at 70.5 h was -13.4%.

Take `Cc1cnn(CCNCC(O)COc2c(C)ccc(C)c2C)c1` (centres undefined): the cytotoxicity at 70.5 h was -5.42%.

On to `CNc1cc2c(nn1)CCN(C(=O)C1CCCc3ccccc31)C2` (centres undefined), for which the cytotoxicity at 70.5 h was -19%.

With `Cn1cc(C2CCCN2C(=O)CCCOc2ccc(F)cc2F)cn1` (centres undefined), the cytotoxicity at 70.5 h was -11.3%.

For `CN(CC(=O)N1CCCC1Cn1cccn1)C1CC1` (centres undefined), the cytotoxicity at 70.5 h was -14.3%.

Regarding `CN1CCN(C2CCN(CC(=O)NCC(F)(F)F)CC2)C1=O`, the cytotoxicity at 70.5 h was -6.61%.

Take `Cc1cc(C(C)NC(=O)N2CCC(n3cncn3)CC2)c(C)s1` (centres undefined): the cytotoxicity at 70.5 h is -17.7%.

`CC(Cn1cccn1)NC(=O)N(C)Cc1ccc(Cl)s1` (centres undefined): the cytotoxicity at 70.5 h is -16.6%.

As for `CCCc1noc(CN2CCCC2c2ccsc2)n1` (centres undefined), the cytotoxicity at 70.5 h is -17.8%.

Take `CN(CC(=O)N1CCCC1Cn1cccn1)c1cnccn1` (centres undefined): the cytotoxicity at 70.5 h was -19.4%.

Turning to `Clc1snnc1CN1CCCCC1Cn1cncn1` (centres undefined), the cytotoxicity at 70.5 h came out at 11.8%.

`c1cnn(CCN2CCOC(Cn3cncn3)C2)c1` (centres undefined): the cytotoxicity at 70.5 h amounted to 6.43%.

For `COc1c(C)cnc(CN2CCCCC2Cn2nc(C)nc2C)c1C` (centres undefined), the cytotoxicity at 70.5 h was 16.8%.

For the origin of these results see ChEMBL document CHEMBL3507680, “University of Dundee, Gates Library screen for HepG2 cell viability”.
